Patent publication US20230129485A1, “SYSTEM AND METHOD FOR DETERMINING MATERIAL PROPERTIES OF MOLECULAR SYSTEMS FROM AN AB-INITIO PARAMETERIZED FORCE-FIELD” (InterX, Inc., priority 2021, published 2023)

What was measured:
[1] = Free energy of hydration by COSMO implicit solvent model (MolPro ver. 2012); details: absolute error vs Exp (hydration)
Procedure, shortened: (§1)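 Hydration energies come from continuum solvent models. Those for COSMO were computed with MolPro. SMD and PCM results were received, and the SMD, PCM and COSMO-RS sets each cover just the molecules in common with the QM-parameterized force-field calculations.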

[2] = Free energy of hydration predicted by polarizable AMOEBA force field, from literature; details: Table 5; error of AMOEBA hydration free energy vs experiment
[3] = Table 3; free energy of solvation in cyclohexane, experimental; cited from earlier work
[4] = Table 5; free energy of hydration, GAFF prediction taken from literature; cited from earlier work
[5] = Free energy of hydration by COSMO-RS
Procedure, shortened: as §1

[6] = Free energy of hydration predicted by General Amber Force Field (GAFF), from literature; details: Table 5; error of GAFF hydration free energy vs experiment
[7] = Table 5; free energy of hydration, AMOEBA prediction taken from literature; cited from earlier work
[8] = implicit solvent model, values received; cited from earlier work
[9] = Table 3; CHEX/H2O partition coefficient, experimental; cited from earlier work
[10] = Free energy of hydration predicted with the QM-parameterized force field model (ARROW FF), classical MD and PIMD simulation in a water box; details: for water Arrow MD Error / water Arrow PIMD8 Error: Table 3; for water Arrow MD Error: absolute error of MD hydration free energy vs experiment; for water Arrow PIMD8 Error: absolute error of PIMD8 hydration free energy vs experiment; for Arrow error: Table 5, error of Arrow PIMD8 hydration free energy vs experiment; for Arrow PIMD8 Error: absolute error vs Exp (hydration)
Procedure, shortened: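 Classical and PIMD runs (MTS integrator, MTTK barostat at 1 atm) followed minimization and 50 ps equilibration, with 1 ns NPT production per window. Fifteen unequally spaced lambda windows removed all solute-solvent interactions simultaneously in a 32 Å water box. Hydration free energy computed by Bennett acceptance ratio and thermodynamic integration.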

[11] = implicit solvent model, values received; cited from earlier work; remark: listed apart in the source
[12] = CHEX/H2O partition coefficient (log D) predicted with the QM-parameterized force field model (ARROW FF); details: Table 3
Procedure, shortened: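 Cyclohexane/water partition coefficients were predicted by molecular simulation with a QM-parameterized force field, with bonded force constants and equilibrium values fitted to MP2/aug-cc-pVTZ energies. Solutes carried neutral functional groups, and results from four independent groups were averaged.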

[13] = free energy of hydration, experimental, cited from earlier work; for water Exp (hydration): Table 3; for Exp (hydration): Table 5
[14] = Free energy of hydration by Solvation Model Dielectric (SMD) implicit solvent model; details: absolute error vs Exp (hydration)
Procedure, shortened: as §1

[15] = Free energy of hydration by Polarizable Continuum Model (PCM); details: absolute error vs Exp (hydration)
Procedure, shortened: as §1

| Structure (SMILES) | COSMO/Molpro Error [1] [kcal/mol] | AMOEBA error [2] [kcal/mol] | CHEX Exp (solvation) [3] [kcal/mol] | GAFF [4] [kcal/mol] | COSMO-RS error [5] [kcal/mol] | GAFF error [6] [kcal/mol] | AMOEBA [7] [kcal/mol] | SMD free energy of hydration [8] [kcal/mol] | Exp (log D) [9] | water Arrow MD Error [10] [kcal/mol] | water Arrow PIMD8 Error [10] [kcal/mol] | Arrow error [10] [kcal/mol] | Arrow PIMD8 Error [10] [kcal/mol] | PCM free energy of hydration [11] [kcal/mol] | log D Arrow MD Error ([12]; absolute error of MD log D vs experiment) | log D Arrow PIMD Error ([12]; absolute error of PIMD log D vs experiment) | water Exp (hydration) [13] [kcal/mol] | Exp (hydration) [13] [kcal/mol] | SMD Error [14] [kcal/mol] | PCM Error [15] [kcal/mol] |
| --- | --- | --- | --- | --- | --- | --- | --- | --- | --- | --- | --- | --- | --- | --- | --- | --- | --- | --- | --- | --- |
| Nc1ccccc1 [Aniline] | 2.13 | 0.76 | -5.52 | -5.92 | 0.23 | 0.38 | -4.78 | -4.80 | −0.01 | 0.17 | 0.06 | 0.06 | 0.06 | -4.10 | 0.18 | 0.13 | -5.54 | -5.54 | 0.74 | 1.44 |
| c1ccccc1 [Benzene] | 2.32 | 0.02 | -4.19 | -0.70 | 0.01 | 0.18 | -0.86 | -0.70 | – | 0.58 | 0.17 | 0.17 | 0.17 | -1.60 | – | – | -0.88 | -0.88 | 0.18 | 0.72 |
| C=CCC [But-1-ene] | 3.14 | 0.55 | – | 2.48 | 0.36 | 1.10 | 0.83 | 1.20 | – | 0.54 | 0.25 | 0.25 | 0.25 | -0.80 | – | – | 1.38 | 1.38 | 0.18 | 2.18 |
| c1c[nH]cn1 [Imidazole] | 3.71 | 0.65 | – | -7.85 | 1.30 | 1.75 | -10.25 | -9.00 | – | 0.81 | 0.29 | 0.29 | 0.29 | -6.70 | – | – | -9.6 | -9.60 | 0.60 | 2.90 |
| CNC [dimethylamine] | 0.57 | 1.26 | – | -3.11 | 2.12 | 1.19 | -3.04 | -3.20 | – | 1.38 | 0.23 | 0.23 | 0.23 | -2.00 | – | – | -4.30 | -4.30 | 1.10 | 2.30 |
